In patent publication US8486892B2, “Blood coagulation factor inhibitors” (Novo Nordisk Health Care AG, priority 2008, dated 2013):

Target: T1, 40K-PEG-rFVIIa (Homo sapiens, UniProt P08709)
T1 construct: Typically, Factor VII is cleaved between residues 152 and 153 to yield Factor VIIa; 40K-PEG (about 40 kDa PEG on a glycan)
T1 sequence (P08709 213-466 limits assumed): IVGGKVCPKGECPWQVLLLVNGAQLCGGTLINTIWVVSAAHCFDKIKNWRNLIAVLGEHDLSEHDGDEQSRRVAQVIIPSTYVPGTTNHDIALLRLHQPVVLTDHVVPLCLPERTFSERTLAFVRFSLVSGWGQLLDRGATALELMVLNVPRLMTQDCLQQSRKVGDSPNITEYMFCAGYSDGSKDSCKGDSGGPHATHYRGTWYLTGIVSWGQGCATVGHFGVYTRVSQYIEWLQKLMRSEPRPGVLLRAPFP
T1 sequence (P08709 61-212 limits assumed): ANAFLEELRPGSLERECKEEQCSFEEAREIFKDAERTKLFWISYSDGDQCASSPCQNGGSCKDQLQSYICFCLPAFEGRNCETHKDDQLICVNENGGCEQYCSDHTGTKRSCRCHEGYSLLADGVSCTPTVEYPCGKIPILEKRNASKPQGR
Assay: Stability experiment on 40K-PEG-rFVIIa in solution, clot activity by One-stage Coagulation Assay (Assay 4)
Format: biochemical
Conditions: 20 mg/ml 40K-PEG-rFVIIa, pH 7.0, 3 months at 25° C.
Protocol: Factor VII polypeptides may also be assayed for specific activities (“clot activity”) by using a one-stage coagulation assay (Assay 4). For this purpose, the sample to be tested is diluted in 50 mM PIPES-buffer (pH 7.2), 1% BSA and 40 μl is incubated with 40 μl of Factor VII deficient plasma and 80 μl of human recombinant tissue factor containing 10 mM Ca^2+ and synthetic phospholipids. Coagulation times (clotting times) are measured and compared to a standard curve using a reference standard in a parallel line assay.
In order to investigate the stabilizing effect of the compounds described by the current invention on Factor VIIa molecules in solution, a stability experiment was performed on 40K-PEG-rFVIIa.
The investigated formulations contained 0, 1, 10 or 30 mM n-propyloxycarbonyl-Phe(4-amidino)-Glu-Asn-Cha-(OEG)5-NH2, and all contained 20 mg/ml 40K-PEG-rFVIIa, 20 mM histidine, pH 7.0, 6% sucrose, 20 mM CaCl2, 0.5 mg/ml methionine. The samples were incubated 3 months at 25° C., and analysed for clot activity using the above-described “One-stage Coagulation Assay” (Assay 4) (see section “General Methods”).

**Q.** How did the “Clot activity relative to the initial value” (1 mM inhibitor) turn out when “Propyloxycarbonyl-(4-amidino-Phe)-Glu-Asn-Cha-[HN—(CH2—CH2—O)2—(CH2)—C(═O)]5—NH2 [Example 1]” was run?
**A.** Its value is 18%.

**Q.** And the “Clot activity relative to the initial value” (10 mM inhibitor)?
**A.** The value was 86%.

**Q.** What about the “Clot activity relative to the initial value” (30 mM inhibitor) of the same substance?
**A.** Its value is 89%.
